In ChEMBL document CHEMBL3271952, “Synthesis and pharmacological properties of the N-terminal decapeptide of the vasoactive intestinal peptide (VIP)” (J Med Chem, 1977):
Calls of active or inactive are those of the source. The calls are words filed in the database; no cut-off is given here. Peptide text beside a SMILES is read from it.

Assays:
Stomach = assay: Vasodilatory activity in rat stomach smooth muscle assessed as muscle relaxation; assay type: functional, tissue-based
Cavia porcellus = species: Cavia porcellus; assay: Vasodilatory activity in guinea pig trachea assessed as muscle relaxation; assay type: functional, tissue-based
Canis familiaris = assay: Vasodilatory activity in anesthetized dog assessed as effect on blood flow; assay type: functional, organism-based; settings: Canis lupus familiaris

| Compound | Activity (Stomach) | Activity (Cavia porcellus) | Activity (Canis familiaris) |
| --- | --- | --- | --- |
| COC(=O)[C@H](Cc1ccc(O)cc1)NC(=O)[C@H](CC(N)=O)NC(=O)[C@H](CC(=O)O)NC(=O)[C@@H](NC(=O)[C@H](Cc1ccccc1)NC(=O)[C@@H](NC(=O)[C@H](C)NC(=O)[C@H](CC(=O)O)NC(=O)[C@H](CO)NC(=O)[C@@H](N)Cc1cnc[nH]1)C(C)C)[C@@H](C)O (H-HSDAVFTDNY-OMe) | Active | Active |  |
| H-AVKKYLNSILN-NH2 | Active | Active | Active |
| H-KQMAVKKYLNSILN-NH2 |  |  | Active |
| H-RKQMAVKKYLNSILN-NH2 |  |  | inactive |
